Measurements as given in patent US8697839B2, “GQ protein competitive inhibitory polypeptides, preparation methods and uses thereof” (Third Military Medical University, priority 2008, dated 2014).
Marks after values point to notes of the source that are not given here.

Legend:
[1] = test system: myocardial hypertrophy in mice induced by norepinephrine; experiment: myocardial hypertrophy in mice induced by norepinephrine; assay type: in vivo; details: for HI (heart index) / HW (heart weight) / LVI (left ventricular index or myocardial hypertrophy index) / LVW (left ventricular weight): x ± s
Method: Fifty of the mice used in the experiment (purchased from Center for Experimental Animals, Third Military Medical University) was assigned into five groups with 10 mice per group. The mice in the control group were administrated with 0.1% ascorbic acid-3 mg % potassium sodium tartrate-physiological saline, The mice in the model group were administrated with 0.1% ascorbic acid-6 mg % norepinephrine bitartrate-physiological saline (equivalent to 1.5 mg/kg NE); The mice in three dosing groups were administrated with the pentadecapeptide, the heptacosapeptide, and the pantapentacontapeptide at 30 μg/kg respectively, while administration of 0.1% ascorbic acid—6 mg % norepinephrine bitartrate—physiological saline. The administration was performed consecutively by intraperitoneal injection (ip), twice a day (bid), for 15 days. The dosing volumes for each group were 50 ml/kg. Then, the animals were sacrificed by cervical dislocation. The heart was removed by thoracotomy, washed with the chilled physiological saline to get rid of blood stain, blotted with filter paper, weighed on a scale. The atriums and the right ventricle were carefully removed (with the interventricular septum left), and the left ventricle was weighed.

[2] = test system: cultured cardiocytes of the rats (hypertrophy induced by NE); experiment: protein content in rat cardiocyte hypertrophy induced by norepinephrine (Lowry method); assay type: cell-based, Wistar rats; details: for Protein content: 24 h, n = 6, x ± s; for effect on protein content in the hypertrophic cardiocyte induced by NE: polypeptide at 10 nmol/L
Excerpt: 1. Wistar rats 1-3 day postpartum (purchased from Center for Experimental Animal, Third Military Medical University) was used, sacrificed by cervical dislocation, and fixed on a dissecting table. The ventral skin of the corpus was disinfected with 2% iodine tincture and then 75% ethanol. The heart was removed, cutted into pieces of about 1-3 mm^3, digested repeatedly with a digestion solution containing 0.08% trypase, 0.02% EDTA, and 0.05% collogen. The cells were collected in DMEM containing 10% fetal bovine serum and cultured in an incubator at 37° C., 5% CO2.
2. The cardiocytes cultured for 48 h were subjected to replacement of the DMEM with a serum-free DMEM culture media and further cultured for 24 h before addition of a drug according to the following groups: • Normal control group; 10 μl of PBS was added. • Norepinephrine group; norepinephrine (NE, Serva Corporation, USA) was added at 1 μmol/L. • Polypeptide-dosed group: NE was added, while the corresponding polypeptide drug was added at 10 nmol/L.
(§1) 3. After addition of the drug, the cells were further cultured for 24 h and then the culture media was discarded. The culture was washed with PBS, followed by adding 0.5 ml of 5% trichloracetic acid per well, and left at 4° C. for 1 h. The precipitate was dissolved in 1 ml of 0.1 mol/L NaOH. The protein content was determined by Lowry method.

[3] = test system: myocardial hypertrophy in rats induced by norepinephrine; experiment: myocardial hypertrophy in rats induced by norepinephrine; assay type: in vivo, Wistar rats; details: for HI (heart index) / HW (heart weight) / LVI (left ventricular index or myocardial hypertrophy index) / LVW (left ventricular weight): n = 6, x ± s
Method: Thirty of Wistar rats were selected and assigned into five groups with 6 rats per group. The rats in the control group were administrated with 0.1% ascorbic acid-3 mg % potassium sodium tartrate-physiological saline; the rats in the model group were administrated with 0.1% ascorbic acid-6 mg % norepinephrine bitartrate-physiological saline; the rats in the three dosing groups were administrated with the pentadecapeptide, the heptacosapeptide, and the pantapentacontapeptide at 15 μg/kg respectively, while administration of norepinephrine. The dosing volume for each group was 33 ml/kg, and the administration was performed consecutively by ip, bid, for 20 days. At that time, the heart and left ventricle were weighed.

[4] = clinical dosage converted into the dosage in the mouse; cited from earlier work
[5] = test system: hypertrophic cardiocyte induced by angiotensin II; experiment: protein content in rat cardiocyte hypertrophy induced by angiotensin II (Lowry method); assay type: cell-based; details: for effect on protein content in the cardiocyte in comparison with Ang II: polypeptide 10 nmol/L + Ang II; for Protein content: 24 h, n = 6, x ± s
Method: 1. The cardiocytes were cultured for 48 h in the same way as described above, then subjected to replacement of the DMEM with a serum-free DMEM culture media, and further cultured for 24 h before addition of a drug according to the following groups: normal control group: 10 μl of PBS was added; Ang II group; Ang II was added at 1 μmol/L; serial polypeptide-dosed group: Ang II was added, while each of the dodecapeptide, pentadecapeptide, heptacosapeptide, pantapentacontapeptide was added at 10 nmol/L.
as §1, with “2.” for “3.”

[6] = test system: rats with spontaneous hypertension (SHR); experiment: myocardial remodeling and blood pressure in rats with spontaneous hypertension (SHR); assay type: in vivo, rat; details: polypeptide 30 μg/kg ip bid, SHR, x ± s, n = 6
Method: 1. Thirty 13-week-old rats with spontaneous hypertension (SHR, purchased from Beijing Vital River Laboratory Animal Technology Co. Ltd., Beijing) were selected and randomly assigned into five groups with 6 rats per group:
SHR model group (Vehicle): 0.9% physiological saline, intraperitoneal injection at a dosage of 5 ml/kg, bid.
Positive control group (losartan): potassium losartan at a dosage of 6 mg/kg, intragastric administration, qd.
The pentadecapeptide group: administration of the pentadecapeptide at a dosage of 30 μg/kg by intraperitoneal injection, bid.
The heptacosapeptide group: administration of the heptacosapeptide at a dosage of 30 μg/kg by intraperitoneal injection, bid.
The pantapentacontapeptide group: administration of the pantapentacontapeptide at a dosage of 30 μg/kg by intraperitoneal injection, bid.
Six of INKY (Wistar-Kyoto) rats (purchased from Center for Experimental Animals, Third Military Medical University) were additionally selected as the normal control.
2. Intervention with the drug was performed consecutively for eight weeks (from Week 14 to Week 21). The body weights of all the tested rats were obtained once every two weeks, and the administration dosage was adjustedbased on body weights.

[7] = test system: myocardial hypertrophy in rats induced by aortic coarctation; experiment: myocardial hypertrophy in rats induced by aortic coarctation; assay type: in vivo, Wistar rats; details: 15 μg/kg ip once a day, 3 weeks post operation; x ± SEM
Excerpt: Healthy male Wistar rats (purchased from Center for Experimental Animals, Third Military Medical University) were randomly assigned into the following groups: the sham-operation group, operation model group (SRS), and polypeptide-dosing group. Before the operation, animals were fasted overnight and given Ad libitum access to water, and then anesthetized with pentobarbital sodium and underwent celiotomy. The abdominal aorta was separated, and a […] needle (0.80 mm outer diameter) was fastened along the abdominal aorta above the right renal artery with a silk suture before the needle was quickly removed. Then, the abdomen was closed by suturation. The rats in the sham operation group were subjected to the same treatment as the aforementioned, except no ligation with silk suture. From the first day post operation, the rats in the sham operation control group and in the operation model group were administrated with physiological saline at 7.5 ml/kg, ip, once a day; the rats in the dosing group were administrated with the pentadecapeptide, heptacosapeptide, and pantapentacontapeptide at 15 μg/kg respectively, ip, once a day. Rats were reared routinely for 3 weeks and then sacrificed. The heart was removed by thoracotomy, washed with the chilled physiological saline to get rid of blood stain, blotted with filter paper. The heart and the left ventricle were weighed on a scale.

[8] = NE model group: equivalent to 1.5 mg/kg NE ip bid 15 days, alone
[9] = NE model group: 6 mg % norepinephrine bitartrate, 33 ml/kg ip bid 20 days, alone
[10] = polypeptide 10 nmol/L together with NE 1 μmol/L
[11] = polypeptide 10 nmol/L together with Ang II 1 μmol/L
[12] = polypeptide 30 μg/kg ip bid 15 days with NE
[13] = polypeptide 15 μg/kg ip bid 20 days with norepinephrine

## NC[C@H](O)c1ccc(O)c(O)c1 [NE, norepinephrine, reference compound]
[1]; [8]
  HI (heart index): 4.82 ± 0.44 mg/g
  HW (heart weight): 112.1 ± 12.1 mg
  LVI (left ventricular index or myocardial hypertrophy index): 3.69 ± 0.36 mg/g
  LVW (left ventricular weight): 85.6 ± 9.16 mg
[2]; NE group: NE 1000 nmol/L alone
  Protein content: 121.0 ± 13.2 μg/10^5 cells
[3]; [9]
  HI (heart index): 3.674 ± 0.348 g/kg
  HW (heart weight): 0.690 ± 0.078 g
  LVI (left ventricular index or myocardial hypertrophy index): 2.954 ± 0.225 g/kg
  LVW (left ventricular weight): 0.555 ± 0.055 g

## C[C@H](CS)C(=O)N1CCC[C@H]1C(=O)O [captopril]
[4]
  ratio of mouse LD50/routine dosage: 388

## Dicosapeptide: SEQ ID NO: 7 (icosapeptide), obtained by deleting amino acid residues 1 to 35 at the N-terminal of SEQ ID NO: 1 (VFAAVKDTILQLNLKEYNLV; listed as Homo sapiens)
[2]; [10]
  Protein content: 103.4 ± 11.4 μg/10^5 cells
[2]
  effect on protein content in the hypertrophic cardiocyte induced by NE: significantly decrease

## Dodecapeptide: SEQ ID NO: 10, obtained by deleting amino acid residues 1 to 43 at the N-terminal of SEQ ID NO: 1 (ILQLNLKEYNLV; listed as Homo sapiens)
[5]
  effect on protein content in the cardiocyte in comparison with Ang II: no manifest effect
[5]; [11]
  Protein content: 144.0 ± 11.7 μg/10^5 cells
[2]; [10]
  Protein content: 113.3 ± 11.6 μg/10^5 cells
[2]
  effect on protein content in the hypertrophic cardiocyte induced by NE: no manifest effect

## Heptadecapeptide: SEQ ID NO: 8, obtained by deleting amino acid residues 1 to 38 at the N-terminal of SEQ ID NO: 1 (AVKDTILQLNLKEYNLV; listed as Homo sapiens)
[2]; [10]
  Protein content: 96.4 ± 10.5 μg/10^5 cells
[2]
  effect on protein content in the hypertrophic cardiocyte induced by NE: significantly decrease

## Pentadecapeptide: SEQ ID NO: 9, obtained by deleting amino acid residues 1 to 40 at the N-terminal of SEQ ID NO: 1 (KDTILQLNLKEYNLV; listed as Homo sapiens)
[6]; 0 w
  Systolic blood pressure of artery: 177.3 ± 6.42 mmHg
[6]; 2 w
  Systolic blood pressure of artery: 190.4 ± 7.75 mmHg
[6]; 4 w
  Systolic blood pressure of artery: 200.2 ± 4.13 mmHg
[6]; 6 w
  Systolic blood pressure of artery: 217.1 ± 8.82 mmHg
[6]; 8 w
  Systolic blood pressure of artery: 224.1 ± 6.37 mmHg
[6]; echocardiography
  EF (ejection fraction): 89.4 ± 3.90%
  FS (shortening fraction): 55.1 ± 4.33%
  IVST (intervertricular septum thickness): 1.62 ± 0.20 mm
  LAD (left atrium sinistrum diameter): 3.39 ± 0.33 mm
  LVEDD (left ventricular end diastolic diameter): 5.38 ± 0.31 mm
  LVESD: 2.41 ± 0.35 mm
  PWT (left ventricular posterior wall thickness): 1.96 ± 0.16 mm
  SV (stroke volume): 0.32 ± 0.05 mL
[6]; eight weeks
  HI: 3.44 ± 0.05 mg/g
  HW: 1055 ± 30 mg
  LVI: 2.46 ± 0.04 mg/g
  LVW: 775 ± 28 mg
[6]
  CSA (cross section area of the cardiocyte): 329 ± 24** μm^2
  TDM (trans diameter of the cardiocyte): 14.88 ± 2.56 μm
[7]
  HI: 3.39 ± 0.10 mg/g
  HW: 706 ± 30.8 mg
  LVI: 2.01 ± 0.06 mg/g
  LVW: 418 ± 12.3 mg
[1]; 30 μg/kg ip bid 15 days with NE, P>0.05
  decrease of heart weight: 9.9%
[1]; [12]
  HI (heart index): 4.27 ± 0.42 mg/g
  HW (heart weight): 100.9 ± 12.8 mg
  LVI (left ventricular index or myocardial hypertrophy index): 3.16 ± 0.39 mg/g
  LVW (left ventricular weight): 74.7 ± 9.25 mg
[5]
  effect on protein content in the cardiocyte in comparison with Ang II: decrease the protein content in the cardiocyte in varying degrees
[5]; [11]
  Protein content: 130.6 ± 10.79 μg/10^5 cells
[2]; [10]
  Protein content: 104.3 ± 12.6 μg/10^5 cells
[2]
  effect on protein content in the hypertrophic cardiocyte induced by NE: significantly decrease
[3]; 15 μg/kg ip bid 20 days with norepinephrine
  effect on the left ventricular index: significantly decrease
[3]; [13]
  HI (heart index): 3.580 ± 0.226 g/kg
  HW (heart weight): 0.673 ± 0.055 g
  LVI (left ventricular index or myocardial hypertrophy index): 2.606 ± 0.154 g/kg
  LVW (left ventricular weight): 0.490 ± 0.038 g

## angiotensin II (DRVYIHPF; Angiotensin-2; UniProt P01019 25-32, looked up) [Ang II, inducer of cardiocyte hypertrophy, reference compound]
[5]; Ang II added alone, vs 113.9±7.48 normal control, p<0.01
  protein content in the cardiocyte: 143.2 ± 5.49 µg
[5]; Ang II group: Ang II 1000 nmol/L alone
  Protein content: 143.2 ± 5.49 μg/10^5 cells
